Converted amounts (≈) assume the structure as drawn. Where a SMILES comes first, the peptide text is derived from it. Where no end group is shown, it is not given here. [ ]: non-standard residue; d: D form. Cha = N[C@@H](CC1CCCCC1)C(=O)O; NMeL = CN[C@@H](CC(C)C)C(=O)O; Orn = NCCC[C@H](N)C(=O)O
How the values were obtained:
[1] = tested on: E. coli 45849; experiment: Growth inhibition assay (MIC); format: cell-based, Escherichia coli
Description: (§1) The minimal inhibition concentrations (MIC) of the apidaecin-derived peptides and peptide-derivatives were determined by a growth inhibition assay using a serial peptide dilution in sterilized round-bottom 96-well plates (polystyrene, U-bottom, Greiner Bio-One GmbH) with a final volume of 100 μL per well. The bacteria, e.g., E. coli BL21 A1, were grown in nutrient broth (NB, Carl Roth GmbH+Co. KG, Karlsruhe, Germany) at 37° C. over night. To each well of the 96-well plate, 50 μL of the overnight culture adjusted to 5×10^6 CFU/mL in 1% TSB were added. Lyophilized peptides and peptidomimetics were dissolved in 1% TSB (tryptic soy broth) or water to give a final concentration of 250 μg/mL. Fifty μL of the peptide or peptidomimetics solution were added to the first well of a row on the plate and mixed. Fifty μL of the first well containing the peptide solution were transferred to the second well, mixed and again 50 μL transferred to the next well and so on. Thereby, a two-fold dilution series was obtained starting at 250 μg/mL in the first well down to 120 ng/mL in the 12th well of a row giving a final peptide or peptidomimetics concentration from 125 μg/mL (well 1) to 60 ng/mL (well 12). Plates were incubated at 37° C. for 20 hrs. The absorbance was measured at 595 nm using a TECAN micro plate spectrophotometer (Tecan, Germany). All peptides and peptidomimetics were measured in triplicates. Sterilized water was used as a negative control.
(§2) The following multidrug resistant bacteria strains were tested: • Eschericha coli 45849 and D31, • Klebsiella pneumoniae 123132 and K6, • Salmonella typhi S5 and Salmonella enterica subsp. enterica serovar Typhimurium (ATCC 700408), • Rhizobium radiobacter (ATCC 15955 deposited as Agrobacterium tumefaciens).

[2] = tested on: K. Pneumonia K6, ATCC 700603; experiment: Growth inhibition assay (MIC); format: cell-based, Klebsiella pneumoniae; conditions: multidrug resistant strain; 1% TSB, 37° C., 20 hrs
Description: as §1, §2

[3] = tested on: K. Pneumonia 123132; experiment: Growth inhibition assay (MIC); format: cell-based, Klebsiella pneumoniae
Description: as §1, §2

[4] = tested on: S. enterica subsp. Enterica serovar. typhi G10215 ATCC 700408; format: cell-based, Salmonella enterica; conditions: ATCC 700408, 20 h
Description: as §1, §2

[5] = tested on: E. coli D31; format: cell-based, Escherichia coli; conditions: D31, 20 h
Description: as §1, §2

[6] = tested on: S. typhi S5; format: cell-based, Salmonella typhi; conditions: S5, 20 h
Description: as §1, §2

[7] = tested on: R. radiobatter ATCC 15955; experiment: Growth inhibition assay (MIC); format: cell-based, Rhizobium radiobacter
Description: as §1, §2

[8] = tested on: M. luteus ATCC 10240; format: cell-based, Micrococcus luteus; conditions: ATCC 10240, 20 h
Outline: (§3)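 Peptides were serially diluted two-fold in 1% TSB, giving final concentrations from 125 μg/mL down to 60 ng/mL, and mixed with overnight bacterial culture adjusted to 5×10^6 CFU/mL in 1% TSB. After 20 hrs at 37 °C, growth was read as absorbance at 595 nm, in triplicate, with sterile water as negative control.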

[9] = tested on: E. coli BL 21 AI; experiment: Growth inhibition assay (MIC); format: cell-based, Escherichia coli; conditions: 1% TSB, 37° C., 20 hrs
Outline: as §3

[10] = multidrug resistant strain, 1% TSB, 37° C., 20 hrs

Compound | MIC E. coli 45849 [1, 10] | MIC K. Pneumonia K6, ATCC 700603 [2] | MIC K. Pneumonia 123132 [3, 10] | MIC S. enterica subsp. Enterica serovar. typhi G10215 ATCC 700408 [4] | MIC E. coli D31 [5] | MIC S. typhi S5 [6] | MIC R. radiobatter ATCC 15955 [7, 10] | MIC E. coli 45849 ([1]; 45849, 20 h) | MIC K. Pneumonia 123132 ([3]; 20 h) | MIC R. radiobatter ATCC 15955 ([7]; ATCC 15955, 20 h) | MIC M. luteus ATCC 10240 [8] | MIC E. coli BL 21 AI [9]
CC[C@H](C)[C@H](NC(=O)[C@H](Cc1ccc(O)cc1)NC(=O)[C@@H](NC(=O)[C@@H]1CCCN1C(=O)[C@H](CCCNC(=N)N)NC(=O)[C@H](CC(N)=O)NC(=O)[C@H](CC(N)=O)NC(=O)CN)C(C)C)C(=O)N1CCC[C@H]1C(=O)N[C@@H](CCCNC(=N)N)C(=O)N1CCC[C@H]1C(=O)N[C@@H](CCCNC(=N)N)C(=O)N1CCC[C@H]1C(=O)N1CCC[C@H]1C(=O)N[C@@H](Cc1c[nH]cn1)C(=O)N1CCC[C@H]1C(=O)N[C@@H](CCCNC(=N)N)C(=O)N[C@@H](CC1CCCCC1)C(N)=O [compound 37] (H-GNNRPVYIPRPRPPHPR[Cha]-NH2) | 16 µg/mL (≈ 7.35 µM) | 32 µg/mL (≈ 14.7 µM) | 16 µg/mL (≈ 7.35 µM) | 8 µg/mL (≈ 3.68 µM) | 8 µg/mL (≈ 3.68 µM) | 16 µg/mL (≈ 7.35 µM) | 10.5 µg/mL (≈ 4.83 µM) | – | – | – | – | –
CC[C@H](C)[C@H](NC(=O)[C@H](Cc1ccc(O)cc1)NC(=O)[C@@H](NC(=O)[C@@H]1CCCN1C(=O)[C@H](CCCNC(=N)N)NC(=O)[C@H](CC(N)=O)NC(=O)[C@H](CC(N)=O)NC(=O)[C@H](CCCN)NC(C)=O)C(C)C)C(=O)N1CCC[C@H]1C(=O)N[C@@H](CCC(N)=O)C(=O)N1CCC[C@H]1C(=O)N[C@@H](CCCNC(=N)N)C(=O)N1CCC[C@H]1C(=O)N1CCC[C@H]1C(=O)N[C@@H](Cc1c[nH]cn1)C(=O)N1CCC[C@H]1C(=O)N[C@@H](CCCNC(=N)N)C(=O)N[C@@H](Cc1ccccc1)C(N)=O [compound 41] (Ac-[Orn]NNRPVYIPQPRPPHPRF-NH2) | 4 µg/mL (≈ 1.79 µM) | 128 µg/mL (≈ 57.1 µM) | 32 µg/mL (≈ 14.3 µM) | 8 µg/mL (≈ 3.57 µM) | >128 µg/mL | 8 µg/mL (≈ 3.57 µM) | 5.25 µg/mL (≈ 2.34 µM) | – | – | – | – | –
CC[C@H](C)[C@H](NC(=O)[C@H](Cc1ccc(O)cc1)NC(=O)[C@@H](NC(=O)[C@@H]1CCCN1C(=O)[C@H](CCCNC(=N)N)NC(=O)[C@H](CC(N)=O)NC(=O)[C@H](CC(N)=O)NC(=O)[C@H](CCCN)NC(C)=O)C(C)C)C(=O)N1CCC[C@H]1C(=O)N[C@@H](CCCN)C(=O)N1CCC[C@H]1C(=O)N[C@@H](CCCNC(=N)N)C(=O)N1CCC[C@H]1C(=O)N1CCC[C@H]1C(=O)N[C@@H](Cc1c[nH]cn1)C(=O)N1CCC[C@H]1C(=O)N[C@@H](CCCNC(=N)N)C(=O)N[C@@H](CC1CCCCC1)C(N)=O [compound 46] (Ac-[Orn]NNRPVYIP[Orn]PRPPHPR[Cha]-NH2) | – | 32 to 64 µg/mL | – | 8 µg/mL (≈ 3.58 µM) | 16 µg/mL (≈ 7.17 µM) | 32 µg/mL (≈ 14.3 µM) | – | 32 µg/mL (≈ 14.3 µM) | 32 to 64 µg/mL | 10.5 µg/mL (≈ 4.7 µM) | – | –
CC[C@H](C)[C@H](NC(=O)[C@H](Cc1ccc(O)cc1)NC(=O)[C@@H](NC(=O)[C@@H]1CCCN1C(=O)[C@H](CCCNC(=N)N)NC(=O)[C@H](CC(N)=O)NC(=O)[C@H](CC(N)=O)NC(=O)[C@@H](N)CCCN)C(C)C)C(=O)N1CCC[C@H]1C(=O)N[C@@H](CCCNC(=N)N)C(=O)N1CCC[C@H]1C(=O)N[C@@H](CCCNC(=N)N)C(=O)N1CCC[C@H]1C(=O)N1CCC[C@H]1C(=O)N[C@@H](Cc1c[nH]cn1)C(=O)N1CCC[C@H]1C(=O)N[C@@H](CCCNC(=N)N)C(=O)N(C)[C@@H](CC(C)C)C(N)=O [compound 47] (H-[Orn]NNRPVYIPRPRPPHPR[NMeL]-NH2) | 4 µg/mL (≈ 1.81 µM) | 32 to 64 µg/mL | 32 µg/mL (≈ 14.5 µM) | 8 µg/mL (≈ 3.63 µM) | 8 µg/mL (≈ 3.63 µM) | 32 µg/mL (≈ 14.5 µM) | 1.3 µg/mL (≈ 0.589 µM) | – | – | – | – | –
CC[C@H](C)[C@H](NC(=O)[C@H](Cc1ccc(O)cc1)NC(=O)[C@@H](NC(=O)[C@@H]1CCCN1C(=O)[C@H](CCCNC(=N)N)NC(=O)[C@H](CC(N)=O)NC(=O)[C@H](CC(N)=O)NC(=O)[C@H](CCCN)NC(C)=O)C(C)C)C(=O)N1CCC[C@H]1C(=O)N[C@@H](CCCNC(=N)N)C(=O)N1CCC[C@H]1C(=O)N[C@@H](CCCNC(=N)N)C(=O)N1CCC[C@H]1C(=O)N1CCC[C@H]1C(=O)N[C@@H](Cc1c[nH]cn1)C(=O)N1CCC[C@H]1C(=O)N[C@@H](CCCNC(=N)N)C(=O)N[C@@H](CC(C)C)C(=O)OC [compound 48] (Ac-[Orn]NNRPVYIPRPRPPHPRL-OMe) | 4 µg/mL (≈ 1.78 µM) | 128 µg/mL (≈ 56.9 µM) | 32 µg/mL (≈ 14.2 µM) | 16 µg/mL (≈ 7.11 µM) | 64 µg/mL (≈ 28.4 µM) | 4 µg/mL (≈ 1.78 µM) | 1.3 µg/mL (≈ 0.578 µM) | – | – | – | – | –
CC[C@H](C)[C@H](NC(=O)[C@H](Cc1ccc(O)cc1)NC(=O)[C@@H](NC(=O)[C@@H]1CCCN1C(=O)[C@H](CCCNC(=N)N)NC(=O)[C@H](CC(N)=O)NC(=O)[C@H](CC(N)=O)NC(=O)[C@H](CCCN)NC(C)=O)C(C)C)C(=O)N1CCC[C@H]1C(=O)N[C@@H](CCCN)C(=O)N1CCC[C@H]1C(=O)N[C@@H](CCCNC(=N)N)C(=O)N1CCC[C@H]1C(=O)N1CCC[C@H]1C(=O)N[C@@H](Cc1c[nH]cn1)C(=O)N1CCC[C@H]1C(=O)N[C@@H](CCCNC(=N)N)C(=O)N[C@@H](CC(C)C)C(=O)OC [compound 49] (Ac-[Orn]NNRPVYIP[Orn]PRPPHPRL-OMe) | – | 128 µg/mL (≈ 58 µM) | – | 8 µg/mL (≈ 3.62 µM) | 32 µg/mL (≈ 14.5 µM) | 4 µg/mL (≈ 1.81 µM) | – | 2 µg/mL (≈ 0.906 µM) | 64 µg/mL (≈ 29 µM) | 1.3 µg/mL (≈ 0.589 µM) | – | –
Ac-KNNRPVYIPKPRPPHPRL-NH2 [compound 22] | 1 µg/mL | 16 µg/mL | 16 µg/mL | 1 µg/mL | 16 µg/mL | 1 µg/mL | <0.16 µg/mL | – | – | – | 1.95 µg/mL | 1.95 µg/mL
GNNRPVYIPRPRPPHPRLV-NH2 [compound 25] | 1 µg/mL | 16 µg/mL | 16 µg/mL | 1 µg/mL | 64 µg/mL | 2 µg/mL | 0.65 µg/mL | – | – | – | 1.95 µg/mL | 3.91 µg/mL
KNNRPVYIPKPRPPHPRL-NH2 [compound 21] | <0.25 µg/mL | 8 µg/mL | 4 µg/mL | 0.25 to 0.5 µg/mL | 8 µg/mL | 1 µg/mL | 0.65 µg/mL | – | – | – | – | 1.95 to 3.91 µg/mL

From patent US20150315241A1, “Antibiotic Peptides” (priority 2007, published 2015)
